Values of other authors, collected in article PMC2912417 (Biochemistry, 2010).
Where two headings read alike, the source gives them in different places.

Assays:
[1] = peptide alone

Substance: IGLMVGGVVIA [Aβ(32–42)]
- Aggregation / fibril formation of the peptide itself [1]: predominantly amorphous, rather than fibrillar, aggregates
- Toxicity of the peptide itself (Aβ42-induced toxicity): slightly toxic itself

Substance: KGAIIGLMVGGVVIA [Aβ(28–42)]
- Toxicity of the peptide itself (Aβ42-induced toxicity; cell-viability screen): highly toxic itself

Substance: LMVGGVV [Aβ(34–40)]
- Inhibition of Aβ42-induced toxicity (Aβ42-induced toxicity; cell-viability screen under similar conditions): inactive
